Test [1] is described as follows: inhibitors of PAF-induced NFkB signaling in CF airway cells, dose response, cell-based, uHTS hits, panel, cytotoxicity readout (AID 624344). The following applies: CF bronchial epithelial cells, PAF-induced NFkB reporter inhibition; with PAF, mean of runs.
In another test the test system is Cytotoxicity. The test is described as above. The following applies: CF bronchial epithelial cells, mean of runs.

From PubChem BioAssay AID624344 (Sanford-Burnham Center for Chemical Genomics, 2012) come the findings set out here.

SMILES strings stand for the structures. Activity calls are given as the source filed them. No rule for the calls is given here.

As for `COc1ccccc1NC(=O)c1cc2c(CO)cnc(C)c2oc1=Nc1ccc(OC)c(OC)c1`, the IC50 (usually the midpoint of a concentration-inhibition curve) in test [1] was 9.49 µM; in the test on Cytotoxicity it was 12.2 µM.
The corresponding values for `c1csc(Cc2nn3c(-c4ccncc4)nnc3s2)c1` are 7.94 µM and 57 µM (inactive).
Regarding `CC(=O)OC1(C)CC(C)C(=O)C(C(O)CC2CC(=O)NC(=O)C2)C1` (centres undefined), the IC50 in test [1] is less than 0.15 µM; with Cytotoxicity, 0.177 µM.
In the case of `CCC1=Nc2cc(C(=O)NCc3ccco3)ccc2Sc2ccc(C)cc21`, the IC50 in test [1] is 11.7 µM; with Cytotoxicity, 57.9 µM (inactive).
For `Cc1ccc(NC(=O)Nc2nnc(-c3ccncc3)s2)cc1`, the IC50 was 5.53 µM in test [1] and 11 µM in the test on Cytotoxicity.
In the case of `CCCCNc1c(-c2cccc(-c3ccc(OC)cc3)c2)nc2ccc(C)cn12`, the IC50 in test [1] was 4.98 µM; in the test on Cytotoxicity, 1.72 µM.
In the case of `Cc1c(NC(=O)c2cc(-c3cccs3)nc3ccccc23)c(=O)n(-c2ccccc2)n1C`, the IC50 in test [1] was 4.08 µM; in the test with Cytotoxicity, 8.78 µM.
For `Cc1cccc(NC(=O)c2nc[nH]c2C(=O)NCCCNC(=O)c2[nH]cnc2C(=O)Nc2cccc(C)c2)c1`, the figures for the IC50 (in test [1]; in the test on Cytotoxicity) were 4.07 µM and 11.4 µM, respectively.
On to `O=C(Nc1cccnc1)c1sc2cccc(F)c2c1Cl`, for which the IC50 in test [1] was 12.1 µM; with Cytotoxicity, 43 µM.
The corresponding values for `COc1ccc(CN2C[C@H]3CCCN3c3cc(Br)ccc3S2(=O)=O)cc1` are 9.73 µM and 61.7 µM (inactive).
For `O=C(Nc1ccc(Oc2ccc(NC(=O)Nc3ccc([N+](=O)[O-])cc3)cc2)cc1)Nc1ccc([N+](=O)[O-])cc1`, the IC50 is 6.12 µM in test [1] and 27.8 µM in the test on Cytotoxicity.
For `Cc1c(Cl)cccc1NC(=O)COC(=O)c1c2c(nc3ccccc13)CCN(Cc1ccccc1)C2`, the IC50 was 6.85 µM in test [1] and 13.5 µM with Cytotoxicity.
The corresponding values for `C=CC[C@]12CC=CC(=O)[C@@]1(O)O[C@H](c1ccc(OC)c(OC)c1)[C@H]2C` are 4.61 µM and 6.69 µM.
The corresponding values for `COc1ccc(N(CCCN2C(=O)c3cccc4cccc(c34)C2=O)C(=O)c2ccncc2)cc1` are “inactive” and 12.9 µM.
As to `CCOC(=O)C1=C(C)Nc2ccccc2N=C1NC(=O)c1oc2ccccc2c1COC`, the IC50 is 4.25 µM in test [1] and 30.1 µM in the test on Cytotoxicity.
The corresponding values for `C=C1C(=O)[C@]23C[C@H]1CCC2[C@@]1(C)C(C[C@@H]3O)[C@](C)(C(=O)O)CC[C@@H]1O` (some centres undefined) are 1.98 µM and 13.1 µM.
Consider `CN(C)C(=O)c1cccc(-c2cnc3sc(NCc4ccc5c(c4)OCO5)nn23)c1`, for which the IC50 in test [1] was 1.69 µM; with Cytotoxicity, 46.5 µM.
The corresponding values for `COc1ccc(-c2cnc3c(NC=O)cc(-c4ccccc4OC)cn23)cc1OC` are 6.5 µM and 13.7 µM.
The corresponding values for `O=C(O)/C=C/c1ccc2c(-c3ccccc3)onc2c1` are 1.81 µM and 4.73 µM.
The corresponding values for `CC(=O)c1c(O)cc(O)c(C(C)=O)c1O` are 5.34 µM and 5.8 µM.
As for `O=c1[nH]c(C2CCN(S(=O)(=O)c3ccc4c(c3)OCCO4)CC2)nc2c1nnn2Cc1c(F)cccc1Cl`, the IC50 in test [1] is 5.74 µM; in the test on Cytotoxicity, 44.5 µM.
The corresponding values for `O=C1NC(c2cccc3ccccc23)Nc2ccc(Cl)cc21` (centres undefined) are 8.66 µM and > 79 µM (inactive).
For the compound `c1nc(N2CCOCC2)c2c3c(sc2n1)CCCC3`, the IC50 is 6.88 µM in test [1] and 62.3 µM (inactive) in the test on Cytotoxicity.
The corresponding values for `COCCN1Cc2cccc(C(=O)Nc3cccc(-c4nc5ccccc5[nH]4)c3)c2C1=O` are 7.9 µM and 11.1 µM.
The corresponding values for `CCCCN(c1ccccc1)c1ncnc(N)c1[N+](=O)[O-]` are 1.08 µM and > 79 µM (inactive).
The corresponding values for `COc1cccc(C(=O)N2C(C(C)C)COc3cc(Br)ccc3S2(=O)=O)c1` (centres undefined) are 12 µM and 24.7 µM.
As for `COc1ccc2ncn(-c3ccccc3)c2c1`, the IC50 in test [1] is 5.47 µM; in the test on Cytotoxicity, 60.6 µM (inactive).
Regarding `CC(C)C[C@@H](CN1CCCC1CN1C(=S)NC[C@@H]1Cc1ccc(O)cc1)N1C[C@H](Cc2ccc(O)cc2)N(CC2CCCCC2)C1=S` (some centres undefined), the IC50 in test [1] was 9.1 µM; in the test with Cytotoxicity it was 19.8 µM.
The corresponding values for `ON=C1c2ccccc2-c2ccccc21` are 19.5 µM and 63 µM (inactive).
In the case of `Cc1nc2c(O)c3c(c(O)c2nc1C)C1C=CC3CC1`, the values for the 50% inhibitory concentration (IC50) (in test [1]; with Cytotoxicity) were 5.67 µM and 7.03 µM, respectively.
The corresponding values for `Cc1cccc(N(Cc2cc(=O)[nH]c3ccccc23)C(=O)CCl)c1` are 1.23 µM and 2 µM.
The corresponding values for `Cn1nnnc1Sc1ncnc2scc(-c3ccc[nH]3)c12` are 14.7 µM and 6.95 µM.
On to `Cc1cccc(C(=O)N[C@H](C(=O)Nc2nc3ccccc3[nH]2)C(C)C)c1`, for which the IC50 in test [1] was 14.9 µM; in the test with Cytotoxicity, 19.6 µM.
The corresponding values for `C=C1C(=O)C23C(O)C1CCC2C12COC3(O)C(O)C1C(C)(C)CCC2O` (centres undefined) are 3.69 µM and 5.5 µM.
Consider `C=C1C(=O)[C@]23C[C@H]1CCC2[C@]1(C)C(=O)CC[C@@](C)(C(=O)O)C1C[C@@H]3O` (some centres undefined), for which the IC50 in test [1] was 0.96 µM; in the test on Cytotoxicity it was 14.4 µM.
The corresponding values for `Cc1nc2sc(C(N)=O)c(N)c2c2c1CCCC2` are 1.18 µM and 64 µM (inactive).
As for `O=C(c1nnsc1S(=O)c1ccc(Cl)cc1)N1CCOCC1` (centres undefined), the IC50 is 1.87 µM in test [1] and 10.7 µM in the test on Cytotoxicity.
In the case of `COc1ccccc1NS(=O)(=O)c1ccc(-c2cnc(C3CC3)o2)cc1`, the results for the IC50 (in test [1]; in the test with Cytotoxicity) were 16.7 µM and > 79 µM (inactive), respectively.
For the compound `O=c1cc(-c2ccccc2Cl)oc2cc(O)cc(O)c12`, the IC50 was 5.33 µM in test [1] and 55.8 µM (inactive) in the test with Cytotoxicity.
In the case of `Cc1ccc(-c2onc3ccc(C(=O)/C=C/N(C)C)cc23)cc1`, the IC50 was 9.39 µM in test [1] and 22.9 µM in the test with Cytotoxicity.
Consider `COc1ccc(Cc2nnc(SCc3ccc([N+](=O)[O-])cc3)o2)cc1`, for which the IC50 in test [1] is 1.76 µM; with Cytotoxicity, 41.8 µM.
The corresponding values for `N=C1N(c2ccccc2)C(=S)C(=Nc2ccccc2)N1c1ccccc1` are 14.7 µM and 33 µM.
Regarding `C[C@H](CO)N1C[C@H](C)[C@@H](CN(C)C(=O)Nc2ccc3c(c2)OCO3)Oc2c(NC(=O)Nc3ccc(C(F)(F)F)cc3)cccc2C1=O`, the IC50 was 3.05 µM in test [1] and 5.77 µM with Cytotoxicity.
On to `Brc1ccc2ncnc(NCc3cccnc3)c2c1`, for which the results for the IC50 (in test [1]; in the test with Cytotoxicity) were 2.25 µM and 66.2 µM (inactive), respectively.
The corresponding values for `COC(=O)N1C(=O)[C@@](c2ccccc2)(C(C)C)N1C(=O)OC` are 4.26 µM and 38.7 µM.
The corresponding values for `COc1ccc(C(=O)N[C@H](C(=O)Nc2nc3ccccc3[nH]2)C(C)C)cc1` are 14.6 µM and > 79 µM (inactive).
The corresponding values for `COc1ccc(S(=O)(=O)c2c(O)c3ccc(C(=O)Nc4ccccc4Cl)cc3[nH]c2=O)cc1` are 7.32 µM and 37.8 µM.
For the compound `Cc1cc(C)nc(Sc2ncnc(N)c2[N+](=O)[O-])n1`, the IC50 in test [1] was 5.09 µM; in the test with Cytotoxicity, 13.5 µM.
The corresponding values for `O=C(CCC1COc2ccccc2O1)Nc1ccc(Cl)cn1` (centres undefined) are 10.2 µM and 50.9 µM (inactive).
Consider `CCOc1ccc(C(C(=O)NC2CCCC2)N(C(=O)c2snc(C(N)=O)c2N)c2cccc(O)c2)cc1` (centres undefined), for which the IC50 is 4.37 µM in test [1] and 7.27 µM in the test with Cytotoxicity.
The corresponding values for `COc1ccc(C[C@H]2NC[C@H](O)[C@H]2OC(C)=O)cc1` are 0.155 µM and 0.799 µM.
The corresponding values for `N#Cc1c(Br)n(C2OC(CO)C(O)C2O)c2ncnc(N)c12` (centres undefined) are 0.444 µM and 3.58 µM.
For the compound `Cc1ccc(C(=O)c2cc([N+](=O)[O-])ccc2N2CCCCC2)c(C)c1`, the IC50 in test [1] is 6.86 µM; in the test on Cytotoxicity, > 79 µM (inactive).
The corresponding values for `COc1nc(N)c(C#N)c(-c2ccc(N(C)CCC#N)cc2)c1C#N` are 3.31 µM and > 79 µM (inactive).
The corresponding values for `C=CCn1c(Oc2ccccc2F)nc2c1c(=O)n(C)c(=O)n2C` are 5.7 µM and > 79 µM (inactive).
`O=C(Nc1ccc(N2CCN(C(=O)c3ccccc3F)CC2)cc1)c1cncc(Br)c1`: the IC50 is 2.67 µM in test [1] and 54.7 µM (inactive) in the test on Cytotoxicity.
The corresponding values for `C=CCn1cnc2c(c1=O)c1nc3ccccc3nc1n2/N=C/c1cc(OC)c(OC)c(OC)c1` are 4.18 µM and 5.94 µM.
The corresponding values for `COc1cc(C2c3cc4c(cc3C(O)C3COC(=O)C23)OCO4)cc(OC)c1OC` (centres undefined) are > 79 µM (inactive) and > 79 µM (inactive).
Take `O=C1N(c2ccccc2C(F)(F)F)O[C@@]1(c1ccccc1)C1CCCCC1`: the IC50 in test [1] was 8.4 µM; in the test with Cytotoxicity, > 79 µM (inactive).
The corresponding values for `COc1cccc(-c2cnc3c(NC=O)cc(-c4ccc(OC)cc4OC)cn23)c1` are 14.2 µM and 26 µM.
The corresponding values for `Cc1ccc(-c2cc(C(=O)N/N=C/c3c(C)nn(-c4ccccc4)c3C)[nH]n2)cc1` are “inactive” and > 79 µM (inactive).
For `CCOC(=O)COc1ccc2ccccc2c1/C=C/[N+](=O)[O-]`, the IC50 was 8.1 µM in test [1] and 4.6 µM in the test with Cytotoxicity.
For the compound `O=S1(=O)CCC(NC(=S)SCCOc2ccccc2)C1` (centres undefined), the results for the IC50 (in test [1]; in the test with Cytotoxicity) were 4.58 µM and 20.1 µM, respectively.
The corresponding values for `CC(C)CN=C(NS(=O)(=O)c1ccccc1)C(Cl)(Cl)Cl` are 2.93 µM and 44.5 µM.
As for `NC(=O)c1sc2nc3c(c(-c4ccco4)c2c1N)CCCC3`, the IC50 in test [1] is 2.73 µM; with Cytotoxicity it was 44.5 µM.
The corresponding values for `CCOc1cc2c(cc1O)C(=NOC)CC1C2CCC2(C)C(O)CCC12` (centres undefined) are 7.69 µM and > 79 µM (inactive).
The corresponding values for `Cc1cc(N2C(=O)C(O)=C(C(=O)c3ccc(C)o3)C2c2cccc(Oc3ccccc3)c2)no1` (centres undefined) are 10.6 µM and 41.7 µM.
